pIC50: −log10 of the molar value. Values joined by “and” are separate entries in the source; they are usually repeats but may differ in a detail not shown here. Equal entries are not always repeated. Where two headings read alike, the source gives them in different places.
Tests used:
HL-60 = assay type: cell-based, human
BAD KO SV40 MEF = assay type: cell-based, mouse; conditions: Mus musculus, 72 h
HepG2 cells [1] = test: Gene expression analysis by qPCR array (TaqMan Array Human Molecular Mechanisms of Cancer); assay type: cell-based; design: key to RQ CCND3 gene expression / RQ CDC42 gene expression / RQ DVL1 gene expression / RQ FYN gene expression / RQ KRAS gene expression / RQ MAP2K1 gene expression / RQ MAPK1 gene expression / RQ MAPK14 gene expression / RQ NFKB2 gene expression / RQ RAF1 gene expression / RQ RELA gene expression / RQ BCAR1 gene expression: 2^-ΔΔCT relative quantification vs 0.2% DMSO control (calibrator = 1); conditions: HepG2, 12 h; RCX 12 µM, DOX 2 µM
Protocol: HepG2 cells were plated in bottles for cell culture (7 × 10^4 cells/mL). […] The RNA was evaluated by fluorimetry using QuBit (Life Technologies; Camarillo, CA, USA). RNA reverse transcription was performed using a Superscript VILO™ Kit (Invitrogen Corporation; Waltham, MA, USA). A 96-well plate TaqMan® Array Human Molecular Mechanisms of Cancer (ID 4418806, Applied Biosystems^TM, Foster City, CA, USA) was used for the gene expression study by qPCR. The reactions were conducted in an ABI ViiA7 system (Applied Biosystems^TM; Foster City, CA, USA). The cycle conditions comprised 2 min at 50 °C, 20 s at 95 °C, then 40 cycles of 3 s at 95 °C and 30 s at 60 °C. The relative quantification (RQ) of mRNA expression was calculated by the 2^-ΔΔCT method[40] using Gene Expression Suite™ Software (Applied Biosystems^TM), and the cells treated with the negative control (0.2% DMSO) were used as a calibrator. The reactions were normalized by the geometric mean of the RQ of the reference genes GAPDH, 18S and HPRT1. All experiments were performed in DNase/RNase-free conditions.

HepG2 cells [2] = test: Trypan blue exclusion assay; assay type: cell-based, human; conditions: HepG2, 24 h; DOX 2 µM, OXA 10 µM
SCC-4 = assay type: cell-based, human
PBMC = assay type: cell-based; conditions: PBMC (human peripheral blood mononuclear cells, non-cancer), 72 h
[3] = system: multicellular spheroids formed from HepG2 cells; test: 3D multicellular spheroid culture, alamar blue; assay type: cell-based, human; conditions: Homo sapiens; HepG2 3D spheroids, 72 h
Protocol: HepG2 cells were cultivated in 3D multicellular spheroids. Briefly, 100 μL of cell solution (0.5 × 10^6 cells/mL) was added to a 96-well plate with a cell-repellent surface (Greiner Bio-One, Kremsmünster, Austria) and cultured in complete medium plus 3% Matrigel (BD Biosciences, San Jose, CA, USA). Spheroids with stable structures formed after three days. Then, the spheroids were exposed to a range of drug concentrations for 72 h. The negative control received the vehicle that was used for diluting the complex tested. In the end of the experiment, morphological changes were examined by light microscopy (Olympus BX41, Tokyo, Japan) using Image-Pro software (Media Cybernetics, Inc. Silver Spring, USA), and cell viability was quantified by alamar blue assay as described above.

WT SV40 MEF = assay type: cell-based, mouse; conditions: Mus musculus, 72 h
B16-F10 = assay type: cell-based, mouse

Compound: COc1cccc2c1C(=O)c1c(O)c3c(c(O)c1C2=O)C[C@@](O)(C(=O)CO)C[C@@H]3O[C@H]1C[C@H](N)[C@H](O)[C@H](C)O1 [DOX, doxorubicin]
- pIC50 (HL-60; HL-60 (human promyelocytic leukemia), 72 h): 6.70
- selectivity index (SI) (HL-60; IC50 HaCAT / IC50 HL-60): 0.5
- selectivity index (SI) (HL-60; IC50 MRC5 / IC50 HL-60): 6.5
- selectivity index (SI) (HL-60; IC50 PBMC / IC50 HL-60): 26
- pIC50 (BAD KO SV40 MEF): 6.39
- RQ ABL1 gene expression (HepG2 cells [1]): 2.628
- RQ AKT1 gene expression (HepG2 cells [1]): 1.813
- RQ AKT2 gene expression (HepG2 cells [1]): 3.3 and 3.275
- RQ APC gene expression (HepG2 cells [1]): 1.780
- RQ BAX gene expression (HepG2 cells [1]): 0.964
- RQ BCAR1 gene expression (HepG2 cells [1]): 2.2 and 2.176
- RQ BCL2L1 gene expression (HepG2 cells [1]): 0.663
- RQ BCL2L11 gene expression (HepG2 cells [1]): 14.0 and 13.988
- RQ BCL2 gene expression (HepG2 cells [1]): 1.1 and 1.140
- RQ BID gene expression (HepG2 cells [1]): 1.433
- RQ BRAF gene expression (HepG2 cells [1]): 1.0 and 1.012
- RQ CASP8 gene expression (HepG2 cells [1]): 1.414
- RQ CASP9 gene expression (HepG2 cells [1]): 0.957
- RQ CCND1 gene expression (HepG2 cells [1]): 0.8 and 0.820
- RQ CCND3 gene expression (HepG2 cells [1]): 1.2 and 1.151
- RQ CCNE1 gene expression (HepG2 cells [1]): 1.535
- RQ CDC42 gene expression (HepG2 cells [1]): 1.1 and 1.077
- RQ CDK2 gene expression (HepG2 cells [1]): 4.331
- RQ CDK4 gene expression (HepG2 cells [1]): 1.4 and 1.427
- RQ CDKN1A gene expression (HepG2 cells [1]): 2.849
- RQ CDKN1B gene expression (HepG2 cells [1]): 1.0 and 1.029
- RQ CDKN2A gene expression (HepG2 cells [1]): 2.0 and 2.027
- RQ CRK gene expression (HepG2 cells [1]): 2.5 and 2.519
- RQ CTNNB1 gene expression (HepG2 cells [1]): 2.392
- RQ CYCS gene expression (HepG2 cells [1]): 0.582
- RQ DVL1 gene expression (HepG2 cells [1]): 0.5 and 0.539
- RQ E2F1 gene expression (HepG2 cells [1]): 4.8 and 4.768
- RQ EGFR gene expression (HepG2 cells [1]): 0.5 and 0.502
- RQ ELK1 gene expression (HepG2 cells [1]): 2.1 and 2.142
- RQ ERBB2 gene expression (HepG2 cells [1]): 1.8 and 1.746
- RQ FADD gene expression (HepG2 cells [1]): 3.100
- RQ FAS gene expression (HepG2 cells [1]): 2.5 and 2.459
- RQ FGF2 gene expression (HepG2 cells [1]): 1.9 and 1.914
- RQ FOS gene expression (HepG2 cells [1]): 1.514
- RQ FYN gene expression (HepG2 cells [1]): 1.0 and 1.034
- RQ FZD1 gene expression (HepG2 cells [1]): 5.8 and 5.811
- RQ GRB2 gene expression (HepG2 cells [1]): 1.030
- RQ GSK3B gene expression (HepG2 cells [1]): 0.590
- RQ HRAS gene expression (HepG2 cells [1]): 1.4 and 1.370
- RQ IGF1R gene expression (HepG2 cells [1]): 1.160
- RQ ITGA2B gene expression (HepG2 cells [1]): 2.4 and 2.384
- RQ ITGAV gene expression (HepG2 cells [1]): 2.101
- RQ ITGB1 gene expression (HepG2 cells [1]): 1.941
- RQ ITGB3 gene expression (HepG2 cells [1]): 1.707
- RQ JUN gene expression (HepG2 cells [1]): 7.3 and 7.340
- RQ KRAS gene expression (HepG2 cells [1]): 2.6 and 2.552
- RQ MAP2K1 gene expression (HepG2 cells [1]): 2.4 and 2.441
- RQ MAP3K5 gene expression (HepG2 cells [1]): 1.887
- RQ MAPK1 gene expression (HepG2 cells [1]): 0.9 and 0.857
- RQ MAPK3 gene expression (HepG2 cells [1]): 1.561
- RQ MAPK8 gene expression (HepG2 cells [1]): 1.273
- RQ MAPK14 gene expression (HepG2 cells [1]): 2.2 and 2.163
- RQ MDM2 gene expression (HepG2 cells [1]): 0.9 and 0.928
- RQ MYC gene expression (HepG2 cells [1]): 0.4 and 0.392
- RQ NFKB1 gene expression (HepG2 cells [1]): 2.0 and 2.017
- RQ NFKB2 gene expression (HepG2 cells [1]): 3.6 and 3.594
- RQ NFKBIA gene expression (HepG2 cells [1]): 1.224
- RQ NRAS gene expression (HepG2 cells [1]): 1.874
- RQ PIK3CA gene expression (HepG2 cells [1]): 2.854
- RQ PIK3R1 gene expression (HepG2 cells [1]): 6.207
- RQ PTEN gene expression (HepG2 cells [1]): 0.476
- RQ PTK2B gene expression (HepG2 cells [1]): 0.530
- RQ PTK2 gene expression (HepG2 cells [1]): 1.0 and 0.948
- RQ RAC1 gene expression (HepG2 cells [1]): 2.048
- RQ RAF1 gene expression (HepG2 cells [1]): 3.5 and 3.447
- RQ RB1 gene expression (HepG2 cells [1]): 1.230
- RQ RELA gene expression (HepG2 cells [1]): 1.1 and 1.074
- RQ RHOA gene expression (HepG2 cells [1]): 1.270
- RQ SHC1 gene expression (HepG2 cells [1]): 1.9 and 1.865
- RQ SMAD4 gene expression (HepG2 cells [1]): 2.6 and 2.601
- RQ SOS1 gene expression (HepG2 cells [1]): 2.2 and 2.199
- RQ SRC gene expression (HepG2 cells [1]): 1.036
- RQ TCF3 gene expression (HepG2 cells [1]): 1.9 and 1.915
- RQ TGFB1 gene expression (HepG2 cells [1]): 1.413
- RQ TGFBR1 gene expression (HepG2 cells [1]): 1.403
- RQ TGFBR2 gene expression (HepG2 cells [1]): 1.094
- RQ TP53 gene expression (HepG2 cells [1]): 1.0 and 0.945
- RQ VEGFA gene expression (HepG2 cells [1]): 1.8 and 1.772
- change in the number of viable cells (HepG2 cells [2]): reduced the number of viable cells
- selectivity index (SI) (SCC-4; IC50 HaCAT / IC50 SCC-4): 0.1
- selectivity index (SI) (SCC-4; IC50 MRC5 / IC50 SCC-4): 0.6
- selectivity index (SI) (SCC-4; IC50 PBMC / IC50 SCC-4): 2.5
- pIC50 (SCC-4; SCC-4 (human oral squamous cell carcinoma), 72 h): 5.68
- pIC50 (PBMC): 5.28
- pIC50 [3]: 4.74
- pIC50 (WT SV40 MEF): 7.40
- selectivity index (SI) (B16-F10; IC50 HaCAT / IC50 B16-F10): 0.2
- selectivity index (SI) (B16-F10; IC50 MRC5 / IC50 B16-F10): 2.2
- selectivity index (SI) (B16-F10; IC50 PBMC / IC50 B16-F10): 8.7
- pIC50 (B16-F10; Mus musculus, B16-F10 (murine melanoma), 72 h): 6.22
